Experimental data reported in patent publication US9375434B2, “Antitumor effect potentiator composed of imidazooxazine compound” (Taiho Pharmaceutical Co., Ltd., priority 2012, dated 2016).

Key:
[1] = test system: Human ovarian cancer cell line (A2780); assay: Potentiation of antitumor effect of irinotecan, A2780 subcutaneous implant in nude mice (Test Example 5); assay type: in vivo, BALB/cA Jcl-nu/nu mice; details: irinotecan 75 mg/kg/day day 1, 8; route printed p.o.
Procedure: (§1) As an index of antitumor effect, the TV at Day 15 was measured for each of the drug administration groups, and the relative tumor volume (RTV) relative to Day 1 and T/C (%) were calculated by the following formulas to evaluate the antitumor effect.
TV (mm^3)=(length×width^2)/2 RTV=(TV at Day 15)/(TV at Day 1) T/C(%)=(average RTV value of the test liquid administration group)/(average RTV value of the control group)×100
Human ovarian cancer cell line (A2780) was subcutaneously implanted into the right flank of 7-week-old male BALB/cA Jcl-nu/nu mice, and was used in the same manner as in Test Example 1. […] Further, the test liquid of Compound-I was prepared by adjusting its dose to 16 mg/kg/day.
The effect of the combined administration was also statistically determined in the same manner as in Test Example 1. […] FIG. 9 and Table 14 show the results. Further, the change in the body weight over time was evaluated as an index of toxicity in the same manner as in Test Example 1.

[2] = test system: Human stomach cancer cell line (NCI-N87); assay: Potentiation of antitumor effect of lapatinib, NCI-N87 subcutaneous implant in nude mice (Test Example 4); assay type: in vivo, BALB/cA Jcl-nu/nu mice; details: lapatinib 100 mg/kg/day p.o. day 1-14 (q.d.)
Procedure: In the figure, the asterisk represents a result having a statistically significant difference compared with the single-drug administration group. FIG. 1 and Table 10 show the results. […] Lapatinib was prepared by adjusting its dose to 100 mg/kg/day. Further, the test liquid of Compound-I was prepared by adjusting its dose to 16 mg/kg/day. […] The effect of the combined administration was also statistically determined in the same manner as in Test Example 1. In the figure and the table, the asterisk represents a result having a statistically significant difference compared with the single-drug administration group. FIG. 7 and Table 13 show the results.

[3] = test system: Human ovarian cancer cell line (A2780); assay: Potentiation of antitumor effect of doxorubicin, A2780 subcutaneous implant in nude mice (Test Example 6); assay type: in vivo, BALB/cA Jcl-nu/nu mice; details: doxorubicin 7 mg/kg/day day 1, 8
Procedure: In the groups receiving only Compound-I, the test liquid was prepared by diluting Compound-I with 0.5% HPMC to enable administration at a Compound-I dose of 16 mg/kg/day. […] The effect of the combined administration was also statistically determined in the same manner as in Test Example 1.

[4] = test system: Human stomach cancer cell line (NCI-N87); assay: Potentiation of antitumor effect of paclitaxel, NCI-N87 subcutaneous implant in nude mice (Test Example 2); assay type: in vivo, BALB/cA Jcl-nu/nu mice; details: paclitaxel 60 mg/kg/day i.v. day 1, 8
Procedure: In the figure, the asterisk represents a result having a statistically significant difference compared with the single-drug administration group. FIG. 1 and Table 10 show the results. […] Ltd.) was prepared to enable administration at a paclitaxel dose of 60 mg/kg/day. Further, test liquids for the groups receiving only Compound-I were prepared to enable administration at Compound-I doses of 8 mg/kg/day, 16 mg/kg/day, and 24 mg/kg/day. […] In the groups receiving the two drugs, Compound-I was administered at doses of 8 mg/kg/day, 16 mg/kg/day, and 24 mg/kg/day, and paclitaxel was administered at a dose of 60 mg/kg/day. The evaluation was performed in the same manner as in Test Example 1. The effect of the combined administration was also statistically determined in the same manner as in Test Example 1. In the figure and the table, the asterisk represents a result having a statistically significant difference compared with the single-drug administration group. FIG. 3 and Table 11 show the results.

[5] = test system: Human ovarian cancer A2780 cell line; assay: Potentiation of antitumor effect of paclitaxel, A2780 subcutaneous implant in nude mice (Test Example 1); assay type: in vivo, BALB/cA Jcl-nu/nu mice; details: paclitaxel 60 mg/kg/day i.v. day 1, 8
Procedure: Human ovarian cancer A2780 cell line was subcutaneously implanted into the right flank of 7-week-old male BALB/cA Jcl-nu/nu mice. After the implant, the length (mm) and the width (mm) of the tumor were measured, and the tumor volume (TV) was calculated. Thereafter, the mice were divided into groups so that the average TV is equalized in each group. The day of grouping (n=5) is referred to as Day 0. […] Test liquids for the groups receiving only Compound-I were prepared by diluting Compound-I with 0.5% hydroxypropyl methylcellulose (HPMC) so as to enable administration at a Compound-I dose of 8 mg/kg/day, 16 mg/kg/day, and 24 mg/kg/day. […] In the groups receiving the two drugs, Compound-I was administered at doses of 8 mg/kg/day, 16 mg/kg/day, and 24 mg/kg/day, and paclitaxel was administered at a dose of 60 mg/kg/day. […] In the figure, the asterisk represents a result having a statistically significant difference compared with the single-drug administration group. FIG. 1 and Table 10 show the results.

[6] = test system: Human ovarian cancer cell line (A2780); assay: Potentiation of antitumor effect of carboplatin, A2780 subcutaneous implant (Test Example 3); assay type: in vivo, nude rats; details: carboplatin 50 mg/kg/day i.v. day 1, 8
Procedure: In the figure, the asterisk represents a result having a statistically significant difference compared with the single-drug administration group. FIG. 1 and Table 10 show the results. […] Carboplatin was prepared by diluting a […] injection (Bristol-Myers Squibb, 50 mg/5 mL) two-fold with physiological saline to enable administration at a carboplatin dose of 50 mg/kg/day. Further, the test liquid of Compound-I was prepared by adjusting its dose to 16 mg/kg/day. […] The single-drug administration group was administered 0.5% HPMC or a physiological saline as a vehicle instead of Compound-I or carboplatin. […] FIG. 5 and Table 12 show the results. […] The effect of the combined administration was also statistically determined in the same manner as in Test Example 1. In the figure and the table, the asterisk represents a result having a statistically significant difference compared with the single-drug administration group.

[7] = test system: Human stomach cancer cell line (NCI-N87); assay: Potentiation of antitumor effect of everolimus, NCI-N87 subcutaneous implant in nude mice (Test Example 7); assay type: in vivo, BALB/cA Jcl-nu/nu mice; details: everolimus 5 mg/kg/day p.o. day 1-14
Procedure: as §1, with “effect. […] In the figure, the asterisk represents a result having a statistically significant difference compared with the single-drug administration group.” for “effect.”
FIG. 1 and Table 10 show the results. TV (mm^3)=(length×width^2)/2 RTV=(TV at Day 15)/(TV at Day 1) T/C(%)=(average RTV value of the test liquid administration group)/(average RTV value of the control group)×100
Human stomach cancer cell line (NCI-N87) was subcutaneously implanted into the right flank of 7-week-old male BALB/cA Jcl-nu/nu mice, and was used in the same manner as in Test Example 1.
In the group receiving only everolimus (IS Chemical Technology), the test liquid was prepared to enable administration at an everolimus dose of 5 mg/kg/day. A vehicle of 5% ethyl alcohol/5% PEG400/4% Tween 20/86% distilled water was used. In the groups receiving only Compound-I, the test liquid was prepared by diluting Compound-I with 0.5% HPMC to enable administration at a Compound-I dose of 16 mg/kg/day. In the combined administration group, Compound-I was administered at a dose of 16 mg/kg/day, and everolimus was administered at a dose of 5 mg/kg/day. Both Compound-I and everolimus were orally administered once a day for 14 days from Day 1, and the evaluation was performed in the same manner as in Test Example 1. FIG. 13 and Table 16 show the results.
In the figure and the table, the asterisk represents a result having a statistically significant difference compared with the single-drug administration group.

SMILES: CCc1c2c(nc3ccc(OC(=O)N4CCC(N5CCCCC5)CC4)cc13)-c1cc3c(c(=O)n1C2)COC(=O)[C@]3(O)CC [irinotecan, reference compound]
- RTV day 15 Mean ± SD [1]: 11.92 ± 3.68

SMILES: CS(=O)(=O)CCNCc1ccc(-c2ccc3ncnc(Nc4ccc(OCc5cccc(F)c5)c(Cl)c4)c3c2)o1 [Lapatinib, lapatinib, reference compound]
- RTV day 15 Mean ± SD [2]: 1.37 ± 0.28
- T/C (%) [2]: 51%

SMILES: COc1cccc2c1C(=O)c1c(O)c3c(c(O)c1C2=O)C[C@@](O)(C(=O)CO)C[C@@H]3O[C@H]1C[C@H](N)[C@H](O)[C@H](C)O1 [Doxorubicine, doxorubicin, reference compound]
- T/C (%) [3]: 45%

SMILES: CC(=O)O[C@H]1C(=O)[C@@]2(C)[C@H]([C@H](OC(=O)c3ccccc3)[C@]3(O)C[C@H](OC(=O)[C@H](O)[C@@H](NC(=O)c4ccccc4)c4ccccc4)C(C)=C1C3(C)C)[C@]1(OC(C)=O)CO[C@@H]1C[C@@H]2O [paclitaxel, reference compound]
- RTV day 15 Mean ± SD [4]: 1.09 ± 0.40
- T/C (%) [4]: 32%
- RTV day 15 Mean ± SD [5]: 6.96 ± 1.41
- T/C (%) [5]: 27%

SMILES: N.N.O=C([O-])C1(C(=O)[O-])CCC1.[Pt+2] [Carboplatin, carboplatin, reference compound]
- RTV day 15 Mean ± SD [6]: 20.99 ± 4.57
- T/C (%) [6]: 82%

SMILES: CO[C@H]1C[C@@H]2CC[C@@H](C)[C@@](O)(O2)C(=O)C(=O)N2CCCC[C@H]2C(=O)O[C@H]([C@H](C)C[C@@H]2CC[C@@H](OCCO)[C@H](OC)C2)CC(=O)[C@H](C)/C=C(\C)[C@@H](O)[C@@H](OC)C(=O)[C@H](C)C[C@H](C)/C=C/C=C/C=C/1C [Everolimus, everolimus, reference compound]
- RTV day 15 Mean ± SD [7]: 1.32 ± 0.11
- T/C (%) [7]: 47.3%
